Experimental data as given in article PMC8229129, “Local Colonic Administration of a Serine Protease Inhibitor Improves Post-Inflammatory Visceral Hypersensitivity in Rats” (Pharmaceutics, 2021).

What was measured:
[1] = system: matriptase; set-up: method as in PMID 29911328; conditions: in vitro; cited from earlier work
[2] = system: MPO activity in colonic tissue; test: Colonic myeloperoxidase (MPO) activity; type: in vivo, Sprague–Dawley rats; conditions: for MPO Activity, Day of VMR: mean ± SEM, n = 8, significant effect of treatment
Experimental: Finally, colonic MPO activity was determined in a full-thickness colonic segment (±30 mg) as published previously. MPO is a pro-inflammatory enzyme stored in the azurophilic granules of neutrophilic granulocytes and monocytes. […] One unit (U) of MPO activity is defined as the amount of enzyme required to convert 1 µmol H2O2 to H2O within 1 min at 25 °C and is expressed as U/g tissue.

Compound: CC(=O)Nc1ccc(OP(=O)(Oc2ccc(NC(C)=O)cc2)C(Cc2ccc(N=C(N)N)cc2)NC(=O)OCc2ccccc2)cc1.Cl (stereo not shown) [UAMC-00050]
- inhibition of matriptase [1]: efficiently inhibits
- MPO Activity, Day of VMR ([2]; control rats, 5.0 mg/kg intracolonic, vehicle 0.3 ± 0.1): 0.6 ± 0.2 U/g tissue
- MPO Activity, Day of VMR ([2]; post-colitis rats, 0.1 mg/kg intracolonic, vehicle 0.3 ± 0.2): 2.0 ± 0.7 U/g tissue
- MPO Activity, Day of VMR ([2]; post-colitis rats, 1.0 mg/kg intracolonic, vehicle 0.3 ± 0.2): 2.0 ± 0.5 U/g tissue
- MPO Activity, Day of VMR ([2]; post-colitis rats, 2.5 mg/kg intracolonic, vehicle 0.3 ± 0.2): 2.1 ± 0.5 U/g tissue
- MPO Activity, Day of VMR ([2]; post-colitis rats, 5.0 mg/kg intracolonic, vehicle 0.3 ± 0.2): 1.7 ± 0.5 U/g tissue
- Effect on colonic MPO activity ([2]; single intracolonic administration, both control and post-colitis animals): increased
